Data set [1] in a line: Pharmacokinetics of Z36-MP5 in rats. It counts as in vivo. Particulars: Sprague-Dawley rats; intraperitoneal 1.0 mg/kg. The procedure:
Compound Z36-MP5 was evaluated in a pharmacokinetic study in male Sprague-Dawley (SD) rats following intraperitoneal injection of Z36-MP5 at 1.0 mg/kg as a solution in 5% DMSO, 30% PEG400, and 65% corn oil. Blood was collected at 0.25 h, 0.5 h, 1 h, 2 h, 4 h, 8 h, and 24 h following intraperitoneal injection. The blood samples were placed in wet ice, and serum was collected after centrifugation. Serum samples were frozen and stored at −80° C. The serum samples were analyzed utilizing HPLC-coupled tandem mass spectrometry (LC-MS/MS). Values are calculated from arithmetic mean plasma concentrations (n=3 rats per condition).

A further data set has as its target T1, SMC4 (Homo sapiens, UniProt Q9NTJ3).
T1 construct: to get the native cell lysate; endogenous in cells; host or cells: A375 cell lysate
Kind of data set: ATPase profile (ATP acyl phosphate probe). It counts as binding. The following applies: SMC4, SEQ ID NO: 195, ATP BS.

The next data set addresses T2, DDX39 (Homo sapiens, UniProt O00148).
T2 construct: endogenous in cells; host or cells: A375 cell lysate
The experiment in a line: ATPase profile (ATP acyl phosphate probe). Format: binding. The following applies: DDX39, SEQ ID NO: 69, ATP BS.

The target in the next data set is T3, HSP90AA (Homo sapiens, UniProt P07900).
T3 construct: to get the native cell lysate; endogenous in cells; host or cells: A375
Kind of data set: ATPase profile (ATP acyl phosphate probe). It counts as binding. Particulars: SEQ ID NO: 95, ATP BS.

The next data set addresses T4, LIG1 (Homo sapiens, UniProt P18858).
T4 construct: to get the native cell lysate; endogenous in cells; host or cells: A375
Kind of data set: ATPase profile (ATP acyl phosphate probe). It counts as binding. Particulars: LIG1, SEQ ID NO: 114, ATP BS.

The next data set deals with T5, SMC1A (Homo sapiens, UniProt Q14683).
T5 construct: to get the native cell lysate; endogenous in cells; host or cells: A375 cell lysate
Kind of data set: ATPase profile (ATP acyl phosphate probe). Format: binding. Particulars: SEQ ID NO: 193, ATP BS.

Another data set has as its target T6, DDX18 (Homo sapiens, UniProt Q9NVP1).
T6 construct: endogenous in cells; host or cells: A375 cell lysate
The experiment in a line: ATPase profile (ATP acyl phosphate probe). It counts as binding. The following applies: DDX18, SEQ ID NO: 66, ATP BS.

The next data set concerns the target T7, PRPS1 (Homo sapiens, UniProt P60891).
T7 construct: endogenous in cells; host or cells: A375 cell lysate
Kind of data set: ATPase profile (ATP acyl phosphate probe). Format: binding. Particulars: PRPS1, SEQ ID NO: 171, ATP BS.

The target of the next data set is T8, KIAA0564 (Homo sapiens, UniProt A3KMH1).
T8 construct: to get the native cell lysate; endogenous in cells; host or cells: A375
Kind of data set: ATPase profile (ATP acyl phosphate probe). It counts as binding. Particulars: KIAA0564, SEQ ID NO: 113, ATP BS.

For a further data set, the target named is T9, AK2 (Homo sapiens, UniProt P54819).
T9 construct: to get the native cell lysate; host or cells: A375 cell lysate
The experiment in a line: ATPase profile (ATP acyl phosphate probe). Format: binding. The following applies: AK2, SEQ ID NO: 33, ATP BS.

Data set [2] addresses T10, recombinant purified human Mi-2β protein (Homo sapiens, UniProt Q14839).
T10 construct: made in house
The experiment in a line: FRET-based nucleosome repositioning assay (EpiDyne-FRET). It counts as biochemical. Here is the method:
To screen small molecules that inhibit Mi-2β activity, Homology Modeling was carried out using Structure Prediction Wizard in Prime (49, 50). Mi-2β belongs to the CHD family of chromatin remodelers, which share highly conserved ATPase/helicase domains (51, 52). The Homology Model of Mi-2β was generated using the yeast CHD1 structure (PDB code: 3MWY) as template and the sequence was obtained from Uniprot (53), which clearly depicted the interaction of Mi-2β binding pocket and ATP (FIG. 10a). Virtual screening was done with the enzyme hinge region ligands database and nucleoside mimetic database from Enamine. All ligands of ˜23,010 compounds were docked to the ATP binding site using SP docking and post-processed with Prime MM-GBSA. Ligands with a methyldihydroimidazopyridinone structure were predicted to bind best to the ATP binding region of Mi-2β. To analyze biochemically the inhibitory activity of those inhibitors, a Fluorescence Resonance Energy Transfer (FRET)-based nucleosome repositioning assay (54, 55) was designed and modified using recombinant purified human Mi-2β protein to screen an in-house library of small molecular compounds with a methyldihydroimidazopyridinone structure (FIG. 10b). Briefly, the recombinant nucleosome substrates consist of a Cy5-labeled human histone octamer (H2A T120C-Cy5) wrapped with 5′ Cy3-labeled DNA, which contains a terminal nucleosome 601 positioning sequence. The 601 sequence provides the most thermodynamically preferred locations on DNA for histone octamer (56). FRET signaling was monitored by exciting the nucleosomes at the Cy3 absorption maximum and measuring Cy5 emissions and consequently the FRET signal is at a maximum at the assembled starting point. In the presence of ATP, Mi-2β induces the histone octamer to translocate along the DNA such that the Cy3-labeled DNA 5′ end is moved away from the Cy5-labeled octamer and consequently the FRET signal is decreased (FIG. 10b). The reaction conditions for nucleosome repositioning were modified through multiple rounds of optimization and validation (FIG. 10c-d). […]

T10 sequence (Q14839 whole entry): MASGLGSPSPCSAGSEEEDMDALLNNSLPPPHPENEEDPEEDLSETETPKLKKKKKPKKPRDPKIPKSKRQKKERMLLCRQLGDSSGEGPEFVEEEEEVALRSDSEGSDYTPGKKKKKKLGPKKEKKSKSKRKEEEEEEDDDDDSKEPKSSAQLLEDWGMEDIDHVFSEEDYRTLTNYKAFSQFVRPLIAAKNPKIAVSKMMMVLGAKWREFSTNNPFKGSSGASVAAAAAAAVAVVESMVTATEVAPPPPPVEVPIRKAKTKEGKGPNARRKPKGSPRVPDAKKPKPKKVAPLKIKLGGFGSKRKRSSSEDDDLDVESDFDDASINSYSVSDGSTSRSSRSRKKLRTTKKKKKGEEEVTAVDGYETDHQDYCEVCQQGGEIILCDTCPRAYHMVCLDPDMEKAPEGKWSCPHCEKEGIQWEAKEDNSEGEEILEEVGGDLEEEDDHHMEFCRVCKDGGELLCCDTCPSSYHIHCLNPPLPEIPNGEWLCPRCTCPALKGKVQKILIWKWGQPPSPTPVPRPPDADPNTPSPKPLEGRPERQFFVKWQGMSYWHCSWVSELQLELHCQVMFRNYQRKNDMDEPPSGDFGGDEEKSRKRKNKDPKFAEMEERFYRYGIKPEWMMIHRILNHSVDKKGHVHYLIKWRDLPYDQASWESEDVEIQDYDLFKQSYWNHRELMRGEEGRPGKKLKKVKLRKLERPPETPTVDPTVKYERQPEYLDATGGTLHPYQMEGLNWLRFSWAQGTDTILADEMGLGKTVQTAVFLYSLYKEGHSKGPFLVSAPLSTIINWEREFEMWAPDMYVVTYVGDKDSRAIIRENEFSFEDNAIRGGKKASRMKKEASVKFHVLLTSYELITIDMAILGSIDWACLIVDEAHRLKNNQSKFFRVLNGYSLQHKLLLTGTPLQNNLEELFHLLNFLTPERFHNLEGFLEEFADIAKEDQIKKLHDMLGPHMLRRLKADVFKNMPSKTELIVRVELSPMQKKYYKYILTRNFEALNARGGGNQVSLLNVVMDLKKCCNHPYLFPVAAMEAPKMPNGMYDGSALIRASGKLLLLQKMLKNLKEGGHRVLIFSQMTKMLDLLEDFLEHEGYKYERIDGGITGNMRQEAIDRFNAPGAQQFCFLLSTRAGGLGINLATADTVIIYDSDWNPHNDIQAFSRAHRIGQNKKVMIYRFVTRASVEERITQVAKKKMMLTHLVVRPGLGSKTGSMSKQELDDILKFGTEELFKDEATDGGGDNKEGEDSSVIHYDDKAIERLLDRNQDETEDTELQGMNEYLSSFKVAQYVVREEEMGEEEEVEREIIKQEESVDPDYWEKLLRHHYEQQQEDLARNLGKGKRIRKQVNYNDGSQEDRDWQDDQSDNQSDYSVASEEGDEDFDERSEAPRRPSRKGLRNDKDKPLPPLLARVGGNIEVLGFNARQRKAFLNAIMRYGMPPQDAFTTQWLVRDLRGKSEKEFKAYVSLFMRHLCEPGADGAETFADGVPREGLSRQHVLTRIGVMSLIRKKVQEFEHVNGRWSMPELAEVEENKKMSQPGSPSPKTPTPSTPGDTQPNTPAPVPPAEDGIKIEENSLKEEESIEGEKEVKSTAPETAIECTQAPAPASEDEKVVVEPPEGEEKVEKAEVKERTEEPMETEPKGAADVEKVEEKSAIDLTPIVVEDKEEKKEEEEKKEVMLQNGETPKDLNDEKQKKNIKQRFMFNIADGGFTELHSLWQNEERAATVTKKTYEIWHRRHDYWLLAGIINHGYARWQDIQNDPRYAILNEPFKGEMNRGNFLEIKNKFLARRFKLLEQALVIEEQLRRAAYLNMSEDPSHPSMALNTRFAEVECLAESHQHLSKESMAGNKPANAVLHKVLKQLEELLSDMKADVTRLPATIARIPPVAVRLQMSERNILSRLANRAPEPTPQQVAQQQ
T8 sequence (A3KMH1 29-1905): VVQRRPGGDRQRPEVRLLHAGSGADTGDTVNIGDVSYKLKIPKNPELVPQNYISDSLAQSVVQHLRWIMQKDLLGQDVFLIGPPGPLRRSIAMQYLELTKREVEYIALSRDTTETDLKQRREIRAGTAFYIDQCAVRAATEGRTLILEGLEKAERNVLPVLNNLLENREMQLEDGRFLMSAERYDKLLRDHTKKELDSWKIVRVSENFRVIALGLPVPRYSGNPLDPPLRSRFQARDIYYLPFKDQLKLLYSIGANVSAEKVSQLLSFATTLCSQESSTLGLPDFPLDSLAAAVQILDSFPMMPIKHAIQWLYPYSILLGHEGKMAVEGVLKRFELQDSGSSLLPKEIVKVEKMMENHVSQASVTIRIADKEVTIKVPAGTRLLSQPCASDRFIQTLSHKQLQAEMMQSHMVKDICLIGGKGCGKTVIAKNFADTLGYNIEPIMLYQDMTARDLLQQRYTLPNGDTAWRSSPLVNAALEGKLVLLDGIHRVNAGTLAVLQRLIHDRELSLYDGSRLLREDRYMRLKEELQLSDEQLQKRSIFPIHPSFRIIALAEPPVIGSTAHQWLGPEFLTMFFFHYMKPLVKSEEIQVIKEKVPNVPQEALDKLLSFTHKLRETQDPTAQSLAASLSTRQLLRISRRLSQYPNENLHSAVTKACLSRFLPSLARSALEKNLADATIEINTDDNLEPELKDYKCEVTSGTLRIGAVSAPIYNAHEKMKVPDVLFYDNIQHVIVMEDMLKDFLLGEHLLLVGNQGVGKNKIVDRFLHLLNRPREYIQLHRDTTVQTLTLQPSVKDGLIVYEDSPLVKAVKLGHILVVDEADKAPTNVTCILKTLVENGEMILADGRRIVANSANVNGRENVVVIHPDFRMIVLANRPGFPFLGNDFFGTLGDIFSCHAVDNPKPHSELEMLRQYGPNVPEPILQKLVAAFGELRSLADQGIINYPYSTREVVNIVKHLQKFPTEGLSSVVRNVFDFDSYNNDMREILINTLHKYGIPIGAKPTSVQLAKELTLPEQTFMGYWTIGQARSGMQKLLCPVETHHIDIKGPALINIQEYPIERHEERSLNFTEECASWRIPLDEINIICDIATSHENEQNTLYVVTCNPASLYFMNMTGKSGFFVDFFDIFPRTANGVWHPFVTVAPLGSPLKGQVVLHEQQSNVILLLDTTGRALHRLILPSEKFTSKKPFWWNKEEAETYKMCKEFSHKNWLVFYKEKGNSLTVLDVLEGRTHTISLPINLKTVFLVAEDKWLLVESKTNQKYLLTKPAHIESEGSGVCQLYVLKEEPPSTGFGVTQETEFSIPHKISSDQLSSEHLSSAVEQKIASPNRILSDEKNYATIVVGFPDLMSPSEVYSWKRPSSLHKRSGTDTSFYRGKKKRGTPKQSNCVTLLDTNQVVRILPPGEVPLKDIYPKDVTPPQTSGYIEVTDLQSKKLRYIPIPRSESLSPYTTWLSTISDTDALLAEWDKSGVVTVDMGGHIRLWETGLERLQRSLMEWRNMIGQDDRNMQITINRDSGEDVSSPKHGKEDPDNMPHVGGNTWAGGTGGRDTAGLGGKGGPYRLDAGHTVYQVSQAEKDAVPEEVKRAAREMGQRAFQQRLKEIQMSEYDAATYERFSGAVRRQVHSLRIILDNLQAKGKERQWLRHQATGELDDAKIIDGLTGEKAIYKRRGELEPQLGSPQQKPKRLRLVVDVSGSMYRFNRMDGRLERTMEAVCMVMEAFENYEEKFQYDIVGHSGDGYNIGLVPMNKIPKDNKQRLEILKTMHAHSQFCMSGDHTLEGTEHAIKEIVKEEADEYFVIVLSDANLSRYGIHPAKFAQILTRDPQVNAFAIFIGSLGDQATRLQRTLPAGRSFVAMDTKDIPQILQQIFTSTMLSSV
T7 sequence (P60891 2-318 limits assumed): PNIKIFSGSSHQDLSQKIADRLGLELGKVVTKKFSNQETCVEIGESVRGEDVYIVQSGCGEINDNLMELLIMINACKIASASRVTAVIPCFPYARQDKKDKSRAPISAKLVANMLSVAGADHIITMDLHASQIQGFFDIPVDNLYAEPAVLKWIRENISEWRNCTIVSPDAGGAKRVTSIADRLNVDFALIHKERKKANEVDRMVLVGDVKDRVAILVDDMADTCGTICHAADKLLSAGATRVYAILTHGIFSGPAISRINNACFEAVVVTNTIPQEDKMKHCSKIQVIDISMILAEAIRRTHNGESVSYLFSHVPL
T6 sequence (Q9NVP1 whole entry): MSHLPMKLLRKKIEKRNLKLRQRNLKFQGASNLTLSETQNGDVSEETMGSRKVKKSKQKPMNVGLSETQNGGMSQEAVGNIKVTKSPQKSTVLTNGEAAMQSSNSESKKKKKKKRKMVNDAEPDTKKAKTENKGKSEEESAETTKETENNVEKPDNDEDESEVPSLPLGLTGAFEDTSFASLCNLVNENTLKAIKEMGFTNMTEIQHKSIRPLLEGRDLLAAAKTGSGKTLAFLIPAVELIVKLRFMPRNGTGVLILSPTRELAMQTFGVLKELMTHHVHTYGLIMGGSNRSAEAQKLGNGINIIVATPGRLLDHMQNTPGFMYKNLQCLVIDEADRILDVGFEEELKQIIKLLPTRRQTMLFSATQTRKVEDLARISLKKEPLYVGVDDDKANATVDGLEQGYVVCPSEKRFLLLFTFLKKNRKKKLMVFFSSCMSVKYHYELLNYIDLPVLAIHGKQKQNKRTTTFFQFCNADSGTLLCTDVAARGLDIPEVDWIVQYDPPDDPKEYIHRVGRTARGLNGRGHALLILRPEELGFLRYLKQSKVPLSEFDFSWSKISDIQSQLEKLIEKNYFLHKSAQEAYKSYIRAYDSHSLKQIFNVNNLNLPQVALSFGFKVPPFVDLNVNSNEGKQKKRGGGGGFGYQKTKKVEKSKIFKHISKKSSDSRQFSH

The IC50 is the concentration that gives 50% inhibition. Turning to `Cn1c(=O)[nH]c2ccc(-c3cccc(C(=O)NC4CCn5ccnc5C4)c3)cc21` (stereo not drawn) [Z36-MP5, 3-(3-methyl-2-oxo-2,3-dihydro-1H-benzo[d]imidazol-5-yl)-N-(5,6,7,8-tetrahydroimidazo[1,2-a]pyridin-7-yl)benzamide], the “half-life T1/2” value in [1] was determined as 27 min. Besides, the “Inhibition (%) by 1 μM Z36-MP5” value at SMC4 is listed as −7.11%; at DDX39 it was −8.90%; on HSP90AA, −1.29%; at LIG1, −7.76%; at SMC1A, 5.67%; at DDX18, −5.33%. Also, the “Inhibition (%) by 1 μM Z36-MP5” value on PRPS1 is listed as −22.26%; at KIAA0564 it was 11.07%; on AK2, −4.75%. In addition, the IC50 in [2] (FRET-based nucleosome repositioning assay, read-out: IC50 against Mi-2β) was 82 ± 13 nM. For the same compound, in data set [2] (ratio of IC50 against Mi-2β), the “fold more potent than the original compound Z36” value is on record as ~85 fold.

Values taken from patent publication US12268674B2, “Mi-2β inhibitor as an immunotherapy agent” (BioVentures, LLC, priority 2021, dated 2025).
